Laboratory results published in PMC7985170, “Marine Peptide-N6NH2 and Its Derivative-GUON6NH2 Have Potent Antimicrobial Activity Against Intracellular Edwardsiella tarda in vitro and in vivo” (Frontiers in Microbiology, 2021).

What was measured:
E. tarda [1] = assay: Post-antibiotic effect (PAE); assay type: cell-based, Edwardsiella tarda; settings: 2 h exposure, E. tarda, 28°C, n = 3
Method: E. tarda cells were incubated with peptides (1×, 2×, or 4× MIC) for 2 h, diluted, and cultured at 28°C and 200 rpm. An aliquot of samples (50 μL) were taken for CFU counts at different time intervals until bacterial cultures became turbid. Bacteria treated with the N6NH2, GUON6NH2 or vancomycin were used as the positive control; bacteria without treatment were used as the blank control. The PAE was calculated using the following formula: PAE = T–C, where T is the time for the CFU counts to increase by 10-fold above the count observed immediately after drug removal, and C is the corresponding time for the untreated control ([Oh et al., 2019]).

E. tarda [2] = assay: SEM and TEM morphology; assay type: cell-based, Edwardsiella tarda; settings: 4× MIC, 2 h
Method: To further characterize the bactericidal effects of the peptides, scanning electron microscopy (SEM) and transmission electron microscopy (TEM) were used to visualize morphological changes ([Yang et al., 2019]). E. tarda was cultured to logarithmic growth stage (10^8 CFU/mL) and diluted with 0.01 M PBS (pH 7.4) to OD600 nm = 1. E. tarda cells were treated with 4× MIC peptides at 37°C for 2 h and the untreated cells were used as the control. Briefly, after centrifugation, the bacterial cells were washed three times with 0.1 M PBS (pH 7.2) and fixed overnight at 4°C with 2.5% glutaraldehyde. After washing again, the cells were fixed with 1% osmium tetroxide (OsO4) for 2 h and dehydrated in a graded ethanol series (50%–70%–85%–95% × 2–100%, × 2) for 15 min, respectively. The samples were then dried by CO2, sputtered with gold-palladium, and observed on a QUANTA200 SEM (FEI, Philips, Netherlands).
E. tarda cells were treated peptides before fixation as described above. The bacteria were washed with 0.01 M PBS (pH 7.4) for five times, 7 min each time, and fixed with 1% osmium acid buffer (4°C) for 1 h. After dehydration with a graded acetone series (30%–50%–70%–85%–95%–100% × 3), the cells were immersed in mixtures of acetone and resin (3:1, 1:1 and 1:3, respectively) for 40 min and in a pure epoxy resin overnight. The samples were then embedded in embedding medium and polymerized at 45°C for 3 h and at 65°C for 24 h, respectively. The sections were prepared using an ultramicrotome, stained with 1% uranyl acetate, and visualized by a JEM1400 (JEDL, Tokyo, Japan).

E. tarda [3] = assay: Time-killing curve; assay type: cell-based, Edwardsiella tarda; settings: 2× MIC
Method: Time-killing curve of peptides was performed according to the previous method ([Flamm et al., 2019]). E. tarda was cultured to logarithmic phase, diluted in Mueller Hinton broth (MHB) (1 × 10^5 CFU/mL) containing 1×, 2×, or 4× MIC of peptides, and cultured at 28°C (200 rpm). PBS was added as a control. Bacterial samples (100 μL) were removed at different time intervals (0, 0.5, 1, 1.5, 2, 4, 6, 8, 10, 12, 22, and 24 h) and were counted on MH solid plates. The time-killing curves of peptides were plotted. Bacterial cells treated with 2× MIC norfloxacin and without treatment were used as the positive and blank controls, respectively.

LPS = LPS binding, BODIPY-TR-cadaverine (BC) probe displacement; settings: 0.5 μM LPS, 5 μM BC, Tris buffer pH 7.4; peptides 0.049 to 50 μM
Method: The BODIPY’-TR-cadaverine (BC) probe was used to determine the ability of peptides to bind to LPS ([Wang et al., 2020]). 0.5 μM LPS was incubated with 5 μM BC in […] Tris buffer (pH 7.4) for 4 h at 37°C. Subsequently, the peptides were added into the mixture and the final concentrations of peptides ranged from 0.049 to 50 μM. Ampicillin was used as the negative control. Changes in fluorescence were measured by a fluorescence spectrophotometry at room temperature (excitation/emission, 580/620 nm).

E. tarda [4] = assay: Mouse peritonitis model, bacterial counts in peritoneal fluid; assay type: in vivo; settings: 1 μmol/kg i.p.
Method: The mice were intraperitoneally infected with E. tarda (1 × 10^9 CFU/mL, 0.5 mL) and then injected with N6NH2 and GUON6NH2 (1 μmol/kg) or PBS (the blank control) in the same way at 1 h after infection. The mice were then killed at 24 h after treatment, and peritoneal fluids were obtained by washing with 5 mL of ice-cold PBS. The total number of E. tarda in the fluids was determined before any further procedures. For intracellular bacteria quantification, the other fraction was centrifuged for 5 min at 4°C (1,000 rpm). The cells were collected, treated with 1,000 μg/mL gentamicin for 30 min at 37°C to kill extracellular bacteria, and washed with ice-cold PBS twice to remove extracellular gentamicin. Subsequently, the cells were lysed and the bacteria were counted as described above for the in vitro experiment ([Kim et al., 2011]).

E. tarda [5] = assay: Mouse peritonitis model, survival; assay type: in vivo; settings: 1 μmoL/kg i.p. at 1 h postinfection, ICR mice, 5 days
Method: To establish a peritonitis mouse model, six-week-old female ICR mice (five mice/group) were intraperitoneally injected with E. tarda (1 × 10^9 CFU/mL, 0.5 mL). The infected mice were followed by the intraperitoneal injection of N6NH2, GUON6NH2 or norfloxacin (1 μmol/kg of body weight, 0.2 mL) at 1 h postinfection, respectively. Mice injected with only bacteria or PBS were used as negative or blank controls. The survival of mice was recorded daily for 5 days.

CCn1cc(C(=O)O)c(=O)c2cc(F)c(N3CCNCC3)cc21 [norfloxacin, reference compound]
PAE (E. tarda [1]; 1× MIC): 2.65 h | PAE (E. tarda [1]; 2× MIC): 3.48 h | PAE (E. tarda [1]; 4× MIC): 3.12 h | morphological changes by SEM (E. tarda [2]): no significant change in the bacterial cell structures | ultrastructure changes by TEM (E. tarda [2]): no significant change in bacterial cells | time of bacterial re-growth (E. tarda [3]): 12 h | ability to bind to LPS (BC probe displacement) (LPS): did not replace BC probe to bind to LPS | decrease of total numbers of bacteria (E. tarda [4]; peritoneal fluid 24 h after treatment): 0.49 Log10 CFU | reduction of intracellular bacteria (E. tarda [4]; peritoneal fluid cells 24 h after treatment): 0.35 Log10 CFU | survival rate of mice (E. tarda [5]): 40%
